We go through 10 molecules from patent US20110183978A1, “Phenylpyri(mi)dinylazoles” (Bayer CropScience AG, priority 2009, published 2011).

Data set [1] has as its system Peronospora parasitica. The data set can be described thus: Example A: in vivo test on Peronospora parasitica (downy mildew on white cabbage). Conditions: cabbage plants sprayed 24 hours before inoculation, scored after 5 days; for pest or weed control at 500 ppm: Hyaloperonospora parasitica, 120 h, read-out: % Wirkungsgrad. The method, then:
In Vivo Test on Peronospora Parasitica (Downy Mildew on White Cabbage) An aqueous suspension of the active substance was prepared by homogenization of a mixture of acetone/Tween (dispersant)/dimethyl sulphoxide (DMSO) and subsequent dilution with water to the desired concentration. Cabbage plants (variety: Eminence) are sown in cultivation dishes on a peat-pozzolanic earth substrate (50/50) at 18-20° C. and sprayed at the cotyledon stage with the aqueous suspension described above. As a control, plants are sprayed with an aqueous solution with no active substance. After 24 hours, the plants are inoculated by spraying with an aqueous suspension of Peronospora parasitica spores (50,000 spores per ml). The spores are derived from infected plants. The inoculated cabbage plants are incubated for 5 days at ca. 20° C. in a moist atmosphere. After 5 days, they are scored in comparison with the control plants.

In data set [2] the test system is Pyrenophora teres. The data set can be described thus: Example E: in vivo test on Pyrenophora teres (barley net blotch disease). The note with it: barley plants sprayed 24 hours before inoculation, scored after 12 days; for pest or weed control at 500 ppm: Pyrenophora teres, 288 h, read-out: % Wirkungsgrad. As for the experimental part: In Vivo Test on Pyrenophora Teres (Barley Net Blotch Disease) An aqueous suspension of the active substance was prepared by homogenization of a mixture of acetone/Tween/dimethyl sulphoxide and subsequent dilution with water to the desired concentration. Barley plants (variety: Plaisant) are sown in cultivation dishes on a peat-pozzolanic earth substrate (50/50) at 12° C. and sprayed at the first-leaf stage (10 cm size) with the aqueous suspension described above. As a control, plants are sprayed with an aqueous solution with no active substance. After 24 hours the plants are inoculated by spraying with an aqueous suspension of Pyrenophora teres spores (12,000 spores per ml). The spores are derived from a 12 day-old culture. […] After 12 days they are scored in comparison with the control plants.

Data set [3] concerns Fusarium proliferatum. Kind of data set: Example I: production of fumonisin FB1 by Fusarium proliferatum (microtitre plates). It is filed as cell-based. The note with it: for inhibition at 50 µM: 120 h.
In data set [4] the test system is Sphaerotheca fuliginea. The data set can be described thus: Example L: in vivo test on Sphaerotheca fuliginea (powdery mildew on cucumber/protective). The note with it: Podosphaera fuliginea, 168 h, cucumber, protective, assessment 7 days after inoculation, read-out: % Wirkungsgrad. In short, it runs like this: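 Young cucumber plants sprayed at stated dosage with compound in DMF/alkylaryl polyglycol ether emulsifier diluted in water; inoculated with S. fuliginea spores one day later. Kept in greenhouse at 70% relative humidity, 23° C; protective activity assessed 7 days after inoculation.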

Data set [5] concerns Alternaria solani. Kind of data set: Example M: in vivo test on Alternaria solani (leaf blotch disease/tomato/protective). Conditions: 168 h, tomato, protective, 500 ppm active substance, assessed 7 days after inoculation, read-out: % Wirkungsgrad (activity level). In short, it runs like this:
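Protective test: young tomato plants sprayed with active substance (in DMF with alkylaryl polyglycol ether emulsifier, diluted in water) at the stated dosage, then inoculated with Alternaria solani. Disease assessed 7 days after inoculation.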

In data set [6] the test system is Plasmopara viticola. The data set can be described thus: Example N: in vivo test on Plasmopara viticola (downy mildew, vine/protective). Conditions: 144 h, vine, protective, assessment 6 days after inoculation, read-out: % Wirkungsgrad. In short, it runs like this: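 Protective test: young vine plants were sprayed with active substance diluted in water from a solvent/alkylaryl polyglycol ether emulsifier concentrate at the stated dosage, then inoculated with P. viticola. Plants were moistened and kept 1 day in an incubation cabin, and assessed 6 days after inoculation.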

The subject of data set [7] is Venturia inaequalis. The data set can be described thus: Example O: in vivo test on Venturia inaequalis (apple scab/protective). Conditions: 240 h, protective, assessment 10 days after inoculation, read-out: % Wirkungsgrad. In short, it runs like this:
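Protective test: active substance mixed with solvent and alkylaryl polyglycol ether emulsifier, diluted with water, and sprayed on young plants at the stated dosage before Venturia inaequalis inoculation. Scab assessed 10 days after inoculation.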

Data set [8] relates to Botrytis cinerea. Kind of data set: Example P: in vivo test on Botrytis cinerea (gray mould on bean/protective). Conditions: 48 h, bean, protective, 250 ppm active substance, assessed 2 days after inoculation, read-out: % Wirkungsgrad (activity level). In short, it runs like this:
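Protective test: young bean plants sprayed with the active substance preparation (emulsifier-based concentrate diluted in water) at the stated dosage. Once dry, each leaf received 2 agar pieces bearing Botrytis cinerea. Infection blotch size assessed 2 days after inoculation.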

Data set [9] deals with Leptosphaeria nodorum. The data set can be described thus: Example Q: in vivo test on Leptosphaeria nodorum (glume blotch in wheat/protective). Conditions: Parastagonospora nodorum, 192 h, wheat, protective, assessment 8 days after inoculation, read-out: % Wirkungsgrad. The method, then:
(§1) Solvent: 49 parts by weight N,N-dimethylacetamide Emulsifier: 1 part by weight alkylaryl polyglycol ethers For the preparation of a suitable active substance preparation, 1 part by weight of active substance is mixed with the stated quantities of solvent and emulsifier and the concentrate is diluted to the desired concentration with water. For the testing for protective activity, young plants are sprayed with the active substance preparation at the stated application dosage. After drying of the spray coating, the plants are sprayed with spores with a spore suspension of Leptosphaeria nodorum. […] 8 days after the inoculation, the assessment takes place.

The subject of data set [10] is Septoria tritici. The data set can be described thus: Example R: in vivo test on Septoria tritici (leaf blotch in wheat/protective). The note with it: Zymoseptoria tritici, 504 h, wheat, protective, 1000 ppm active substance, assessed 21 days after inoculation, read-out: % Wirkungsgrad (activity level). As for the experimental part:
as §1, with “with” for “with spores with”, “Septoria tritici.” for “Leptosphaeria nodorum.”, “21” for “8”

Data set [11] concerns Fusarium nivale (var. majus). Kind of data set: whole plant or invertebrate. Type of data set: in vivo. The note with it: Microdochium nivale, in Triticum aestivum, 120 h, read-out: % Wirkungsgrad (activity level).
Data set [12] has as its system Fusarium graminearum. Kind of data set: whole plant or invertebrate. The note with it: in Hordeum vulgare, 120 h, read-out: % Wirkungsgrad (activity level). Type of data set: in vivo.
Data set [13] concerns Rhizoctonia solani. Kind of data set: Example W: in vivo test on Rhizoctonia solani (sheath blight in rice/protective). The note with it: 96 h, rice, protective, 250 ppm active substance, assessed 4 days after inoculation, read-out: % Activity level. As for the experimental part: Solvent: 28.5 parts by weight acetone Emulsifier: 1.5 parts by weight alkylaryl polyglycol ethers For the preparation of a suitable active substance preparation, 1 part by weight of active substance is mixed with the stated quantities of solvent and emulsifier and the concentrate is diluted to the desired concentration with water. For the testing for protective activity, young rice plants are sprayed with the active substance preparation at the stated application dosage. One day after the treatment, the plants are inoculated with hyphae of Rhizoctonia solani. […] 4 days after the inoculation, the assessment takes place.

In data set [14] the test system is Cochliobolus miyabeanus. Kind of data set: Example X: in vivo test on Cochliobolus miyabeanus (brown spot disease, rice/protective). The note with it: Bipolaris oryzae, 96 h, read-out: % Activity level.
A short description of data set [15]: physchem.
Data set [16] concerns Sphaerotheca fuliginea. The data set can be described thus: Example D: in vivo test on Sphaerotheca fuliginea (powdery mildew on cucumber). The note with it: Podosphaera fuliginea, 288 h, cucumber plants sprayed 24 hours before inoculation, scored after 12 days, read-out: % Wirkungsgrad. In short, it runs like this: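 Cucumber plants at cotyledon stage Z10 were sprayed with the compound suspended in acetone/Tween/DMSO diluted with water. After 24 hours they were inoculated with Sphaerotheca fuliginea spores (100,000/ml) and incubated at ca. 20/25° C. and 60/70% RH. Disease was scored after 12 days against untreated sprayed controls.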

The subject of data set [17] is Pyricularia oryzae. Kind of data set: whole plant or invertebrate. It is filed as in vivo. Conditions: 120 h, read-out: % Activity level.
Data set [18] has as its system Fusarium graminearum. Kind of data set: microbe, parasite or virus in culture. It is filed as cell-based.
Data set [19] concerns Rhynchosporium secalis. The data set can be described thus: Example S: in vivo test on Rhynchosporium secalis (leaf scald in barley/protective). Conditions: 336 h, barley, protective, 1000 ppm active substance, assessed 14 days after inoculation, read-out: % Wirkungsgrad (activity level). As for the experimental part: as §1, with “Rhynchosporium secalis.” for “Leptosphaeria nodorum.”, “14” for “8”

[20] abbreviates: LogPA (logP of the stated pure compound or, in a mixture, of the main isomer, 1-substituted 3-aryl-1H-pyrazole).
Where [21] appears, read: 72 h, read-out: % Inhibition des Pilzwachstums bei 50 μM.
Setting [22] is: 168 h, read-out: % Inhibition der DON/AcDON produktion bei 50 μM.
[23] abbreviates: Fusarium proliferatum growth, OD 620, 5 days, read-out: % Inhibition des Pilzwachstums bei 50 μM.
[24] abbreviates: Fusarium proliferatum, 5 days at 20° C., HPLC-MS/MS, read-out: % Inhibition der FB1 produktion bei 50 μM.

Like-named read-outs stand apart in the source and are kept apart here.

With `CC(C)C(=O)Nc1cc(-c2cn(C3CCCCO3)nc2-c2ccc(F)cc2)ccn1` (centres unmarked) [Compound 21], the “% Wirkungsgrad” value in data set [1] (500 ppm) is on record as 100%; in data set [2] (500 ppm) it was 73%. Further, the “% Inhibition der FB1 produktion bei 50 μM” value in data set [3] (5 days at 20° C., HPLC-MS/MS) is on record as 100%. Besides, the “% Inhibition des Pilzwachstums bei 50 μM” value in data set [3] (Fusarium proliferatum growth, OD 620, 5 days) is recorded as 55%.
Consider `CC(C)n1cc(-c2ccncc2)c(-c2ccc(F)cc2)n1` [Compound 89], for which the figures for the pest or weed control at 500 ppm in [4] and in data set [5] were 88% and 89%, respectively. In addition, the pest or weed control at 100 ppm came to 73% in data set [6] and 100% in [7]. The pest or weed control at 250 ppm in data set [8] is 100%; in data set [13], 92%; in [14], 85%. Further, the pest or weed control at 1000 ppm in [9] came out at 83%; in data set [10] it was 100%; in [11], 92%; in [12], 100%. In addition, in [15] (setting [20]), the chromatographic logP turned out to be 1.16.
Turning to `N#Cc1ccccc1Cn1cc(-c2ccncc2)c(-c2ccc(F)cc2)n1` [Compound 136], the pest or weed control at 500 ppm in data set [1] came out at 94%; in [16], 91%; in [2], 71%; in data set [4], 73%; in [5], 95%. Further, the values for the pest or weed control at 250 ppm in data set [17] and in data set [13] were 80% and 97%, respectively. Also, the chromatographic logP in [15] (setting [20]) amounted to 1.49.
`Fc1ccc(-c2nn(CC(F)F)cc2-c2ccncc2)cc1` [Compound 169]: the inhibition at 50 µM was found to be 101% in data set [18] (setting [21]) and 100% in [18] (setting [22]). For the same molecule, the pest or weed control at 500 ppm in data set [4] was 89%. Also, the pest or weed control at 100 ppm in data set [6] turned out to be 96%; in data set [7] it was 99%. Moreover, the pest or weed control at 250 ppm in data set [8] and in [13] was 100% each time. Also, the pest or weed control at 1000 ppm turned out to be 100% in data set [9]; 100% in data set [10]; 100% in data set [19]; 71% in [11]; 100% in data set [12]. This molecule registered a chromatographic logP in data set [15] (LogPA) of 1.
In the case of `CC(C)Cn1ncc(-c2ccncc2)c1-c1ccc(F)cc1` [Compound 24], the pest or weed control at 500 ppm turned out to be 88% in data set [16] and 92% in [2]. Besides, the chromatographic logP in [15] (setting [20]) turned out to be 1.59.
For `CC(C)=CCn1cc(-c2ccncc2)c(-c2ccc(F)cc2)n1` [Compound 30], the pest or weed control at 500 ppm in data set [5] stood at 90%. The values for the pest or weed control at 250 ppm in [17] and in data set [13] were 80% and 95%, respectively. Moreover, in data set [15] (setting [20]), the chromatographic logP turned out to be 2.11.
For `C=CCNc1nccc(-c2cn(CC(C)C)nc2-c2ccc(F)cc2)n1` [Compound 150], the pest or weed control at 500 ppm in [1] was 100%; in [16] it was 96%; in data set [2], 86%; in data set [4] it was 93%; in [5], 95%. Further, the inhibition at 50 µM in data set [18] (setting [21]) was 97%; in data set [18] (setting [22]) it was 99%. Besides, the chromatographic logP in data set [15] (setting [20]) came out at 2.46.
With `O=C(Nc1cc(-c2cn(CC(F)F)nc2-c2ccc(F)cc2)ccn1)C1CC1` [Compound 217], the figures for the inhibition at 50 µM in data set [3] (setting [23]) and in data set [3] (setting [24]) were 97% and 100%, respectively. Further, the pest or weed control at 500 ppm in data set [4] is 100%. Further, the pest or weed control at 100 ppm in [7] was found to be 98%. The pest or weed control at 250 ppm in data set [8] was determined as 95%; in data set [17], 85%; in data set [13], 100%; in data set [14], 85%. Besides, the chromatographic logP in data set [15] (LogPA) was determined as 2.07.
For `CC(C)=CCn1cc(-c2ccncc2)c(-c2c(F)cccc2F)n1` [Compound 7], in data set [2], the pest or weed control at 500 ppm is 73%. Further, the chromatographic logP in data set [15] (setting [20]) amounted to 1.69.
In the case of `CCC(=O)Nc1cc(-c2cn(C3CCCCO3)nc2-c2ccc(F)cc2)ccn1` (centres unmarked) [Compound 19], the pest or weed control at 500 ppm in data set [1] amounted to 100%; in [2] it was 83%. For the same molecule, the figures for the inhibition at 50 µM in data set [3] (setting [23]) and in data set [3] (setting [24]) were 68% and 100%, respectively. For the same molecule, the chromatographic logP in [15] (setting [20]) turned out to be 2.32.

For orientation: chromatographic logP means a lipophilicity value derived from retention on a column.
